Laboratory results: the OligoGym collection
HELM strings list units from the 5' end as sugar, base in round brackets, then linkage (d deoxyribose, r ribose, m 2'-O-methyl, p phosphodiester). Strings are as the collection lists them; they lack the last nucleoside at the 3' end of the tested compound. [moe] = 2'-O-(2-methoxyethyl) (MOE); [sp] = phosphorothioate linkage; [m5C] = 5-methylcytosine

Molecular target: UBE3A-ATS
Assay: mouse, dose not given
Details: ASO

In order of falling 3 h FOB score:
1. RNA1{[moe](T)[sp].[moe](G)p.[moe](A)p.[moe](G)p.[moe]([m5C])p.d(T)[sp].d(A)[sp].d(T)[sp].d([m5C])[sp].d(T)[sp].d(G)[sp].d(T)[sp].d(A)[sp].d([m5C])[sp].d(A)[sp].[moe](A)p.[moe](A)p.[moe](A)[sp].[moe](T)}$$$$ (last 3' nucleoside missing)  6.2 score 0-7
2. RNA1{[moe](T)[sp].[moe](G)p.[moe](A)p.[moe](G)p.d([m5C])[sp].d(T)[sp].d(A)[sp].d(T)[sp].d([m5C])[sp].d(T)[sp].d(G)[sp].d(T)[sp].d(A)[sp].d([m5C])[sp].[moe](A)p.[moe](A)p.[moe](A)p.[moe](A)[sp].[moe](T)}$$$$ (last 3' nucleoside missing)  5.5 score 0-7
3. RNA1{[moe](T)[sp].[moe](G)p.[moe](A)p.[moe](G)p.[moe]([m5C])p.[moe](T)p.d(A)[sp].d(T)[sp].d([m5C])[sp].d(T)[sp].d(G)[sp].d(T)[sp].d(A)[sp].d([m5C])[sp].d(A)[sp].d(A)[sp].[moe](A)p.[moe](A)[sp].[moe](T)}$$$$ (last 3' nucleoside missing)  5.3 score 0-7
4. RNA1{[moe](T)[sp].[moe](G)p.[moe](A)p.[moe](T)p.[moe](A)p.d(G)[sp].d(A)[sp].d(T)[sp].d(A)[sp].d([m5C])[sp].d(T)[sp].d(T)[sp].d(G)[sp].d(T)[sp].d(A)[sp].[moe](T)p.[moe](T)p.[moe](A)[sp].[moe](G)}$$$$ (last 3' nucleoside missing)  3.8 score 0-7
5. RNA1{[moe](T)[sp].[moe](G)p.[moe](A)p.[moe](T)p.[moe]([m5C])p.d(T)[sp].d(A)[sp].d(T)[sp].d(T)[sp].d(A)[sp].d(T)[sp].d(G)[sp].d(A)[sp].d(G)[sp].d(G)[sp].[moe](G)p.[moe]([m5C])p.[moe](A)[sp].[moe](T)}$$$$ (last 3' nucleoside missing)  2 score 0-7
6. RNA1{[moe](T)[sp].[moe](G)p.[moe](A)p.[moe](T)p.[moe]([m5C])[sp].d(A)[sp].d([m5C])[sp].d(A)[sp].d(T)[sp].d(T)[sp].d(A)[sp].d([m5C])[sp].d([m5C])[sp].[moe]([m5C])p.[moe](A)p.[moe](T)[sp].[moe]([m5C])}$$$$ (last 3' nucleoside missing)  1 score 0-7
7. RNA1{[moe](T)[sp].[moe](G)p.[moe](A)p.[moe](T)[sp].d([m5C])[sp].d(A)[sp].d([m5C])[sp].d(A)[sp].d(T)[sp].d(T)[sp].d(A)[sp].d([m5C])[sp].[moe]([m5C])p.[moe]([m5C])p.[moe](A)p.[moe](T)[sp].[moe]([m5C])}$$$$ (last 3' nucleoside missing)  0 score 0-7
8. RNA1{[moe](T)[sp].[moe](G)p.[moe](A)p.[moe](T)p.[moe]([m5C])p.[moe](A)[sp].d([m5C])[sp].d(A)[sp].d(T)[sp].d(T)[sp].d(A)[sp].d([m5C])[sp].d([m5C])[sp].d([m5C])[sp].[moe](A)p.[moe](T)[sp].[moe]([m5C])}$$$$ (last 3' nucleoside missing)  0 score 0-7
9. RNA1{[moe](T)[sp].[moe](G)p.[moe](A)p.[moe](T)p.[moe]([m5C])p.[moe](A)p.d([m5C])[sp].d(A)[sp].d(T)[sp].d(T)[sp].d(A)[sp].d([m5C])[sp].d([m5C])[sp].d([m5C])[sp].d(A)[sp].d(T)[sp].[moe]([m5C])p.[moe]([m5C])[sp].[moe](G)}$$$$ (last 3' nucleoside missing)  0 score 0-7
10. RNA1{[moe](T)[sp].[moe](G)p.[moe](A)p.[moe](T)p.[moe]([m5C])p.d(A)[sp].d([m5C])[sp].d(A)[sp].d(T)[sp].d(T)[sp].d(A)[sp].d([m5C])[sp].d([m5C])[sp].d([m5C])[sp].d(A)[sp].[moe](T)p.[moe]([m5C])p.[moe]([m5C])[sp].[moe](G)}$$$$ (last 3' nucleoside missing)  0 score 0-7
